Results published in article PMC7615656 (European journal of pharmacology, 2010).

What was measured:
[1] = target: recombinant rat α5β3γ2F77I receptors (Rattus norvegicus, UniProt P18508+P19969, F115I); experiment: Two-electrode voltage clamp of GABA-induced chloride currents in Xenopus oocytes; type: cell-based; settings: for efficacy (% GABA EC3): α5β3γ2F77I, ns = not significant
[2] = target: recombinant rat α3β3γ2F77I receptors (Rattus norvegicus, UniProt P18508+P20236, F115I); experiment: as above; type: cell-based; settings: α3β3γ2F77I, ns = not significant
[3] = target: recombinant rat α2β3γ2F77I receptors (Rattus norvegicus, UniProt P18508+P23576, F115I); experiment: as above; type: cell-based; settings: α2β3γ2F77I, ns = not significant
[4] = target: recombinant rat α3β3γ2 receptors (Rattus norvegicus, UniProt P18508+P20236); experiment: as above; type: cell-based; settings: for efficacy (% GABA EC3): α3β3γ2, ns = not significant
[5] = tested on: GABAA receptors containing the γ2F77I mutation; experiment: Modulation of GABA EC3 in receptors containing the γ2F77I mutation; type: cell-based, rat; settings: for stimulation of GABA-induced chloride flux: 10 μM, some γ2F77I receptors
[6] = target: recombinant rat α6β3γ2 receptors (Rattus norvegicus, UniProt P18508+P30191); experiment: Two-electrode voltage clamp of GABA-induced chloride currents in Xenopus oocytes; type: cell-based; settings: for efficacy (% GABA EC3): ns = not significant
[7] = tested on: GABAA receptors of mice containing the point mutation γ2F77I; settings: receptor binding; ref Ogris et al., 2004; cited from earlier work
[8] = target: recombinant rat α5β3γ2 receptors (Rattus norvegicus, UniProt P18508+P19969); experiment: Two-electrode voltage clamp of GABA-induced chloride currents in Xenopus oocytes; type: cell-based; settings: for efficacy (% GABA EC3): α5β3γ2, ns = not significant
[9] = target: recombinant rat α1β3γ2F77I receptors (Rattus norvegicus, UniProt P18508+P62813, F115I); experiment: as above; type: cell-based; settings: α1β3γ2F77I, ns = not significant
[10] = target: recombinant rat α4β3γ2 receptors (Rattus norvegicus, UniProt P18508+P28471); experiment: as above; type: cell-based; settings: for efficacy (% GABA EC3): ns = not significant
[11] = target: recombinant rat α1β3γ2 receptors (Rattus norvegicus, UniProt P18508+P62813); experiment: as above; type: cell-based; settings: for efficacy (% GABA EC3): α1β3γ2, ns = not significant
[12] = target: recombinant rat α2β3γ2 receptors (Rattus norvegicus, UniProt P18508+P23576); experiment: as above; type: cell-based; settings: for efficacy (% GABA EC3): α2β3γ2, ns = not significant
[13] = target: recombinant rat α4β3γ2F77I receptors (Rattus norvegicus, UniProt P18508+P28471, F115I); experiment: as above; type: cell-based; settings: ns = not significant
[14] = target: recombinant rat α6β3γ2F77I receptors (Rattus norvegicus, UniProt P18508+P30191, F115I); experiment: as above; type: cell-based; settings: ns = not significant

recombinant rat α2β3γ2F77I receptors, sequence (P23576 29-451): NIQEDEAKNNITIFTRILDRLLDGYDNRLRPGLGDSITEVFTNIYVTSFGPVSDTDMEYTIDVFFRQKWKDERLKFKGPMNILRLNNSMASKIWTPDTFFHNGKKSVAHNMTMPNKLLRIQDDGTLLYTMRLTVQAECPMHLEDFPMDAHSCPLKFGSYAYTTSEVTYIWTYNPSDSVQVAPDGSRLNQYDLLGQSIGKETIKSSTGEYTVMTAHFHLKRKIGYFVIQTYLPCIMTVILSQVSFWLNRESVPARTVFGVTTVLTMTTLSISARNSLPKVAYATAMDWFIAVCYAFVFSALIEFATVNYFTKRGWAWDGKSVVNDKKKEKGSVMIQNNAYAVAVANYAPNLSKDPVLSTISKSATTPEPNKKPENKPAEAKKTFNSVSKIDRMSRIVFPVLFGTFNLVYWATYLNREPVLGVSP
recombinant rat α2β3γ2F77I receptors, sequence (P63079 26-473 partner): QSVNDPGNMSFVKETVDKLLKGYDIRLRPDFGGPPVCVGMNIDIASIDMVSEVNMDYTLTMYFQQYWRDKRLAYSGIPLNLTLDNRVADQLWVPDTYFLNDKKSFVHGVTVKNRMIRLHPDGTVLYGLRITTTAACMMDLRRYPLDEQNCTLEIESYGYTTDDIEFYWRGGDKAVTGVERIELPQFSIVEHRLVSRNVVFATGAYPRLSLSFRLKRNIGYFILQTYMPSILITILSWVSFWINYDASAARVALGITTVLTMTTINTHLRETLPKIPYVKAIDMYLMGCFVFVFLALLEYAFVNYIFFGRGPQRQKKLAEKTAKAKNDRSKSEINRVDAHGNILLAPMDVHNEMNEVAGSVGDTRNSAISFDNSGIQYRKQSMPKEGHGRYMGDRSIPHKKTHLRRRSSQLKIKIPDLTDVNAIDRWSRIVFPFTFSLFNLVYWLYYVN
recombinant rat α2β3γ2F77I receptors, sequence (P18508 39-466 F115I): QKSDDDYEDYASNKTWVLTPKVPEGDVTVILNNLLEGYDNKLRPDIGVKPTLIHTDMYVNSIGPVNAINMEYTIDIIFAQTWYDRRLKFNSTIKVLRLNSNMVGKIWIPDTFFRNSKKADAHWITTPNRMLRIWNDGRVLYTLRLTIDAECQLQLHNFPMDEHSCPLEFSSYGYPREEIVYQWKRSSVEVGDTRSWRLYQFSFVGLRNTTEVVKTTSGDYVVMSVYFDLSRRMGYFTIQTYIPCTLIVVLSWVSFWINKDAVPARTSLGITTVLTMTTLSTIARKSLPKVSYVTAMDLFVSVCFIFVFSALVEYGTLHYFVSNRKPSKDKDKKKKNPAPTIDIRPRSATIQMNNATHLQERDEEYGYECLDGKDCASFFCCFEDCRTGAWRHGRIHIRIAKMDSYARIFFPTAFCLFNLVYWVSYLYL
recombinant rat α2β3γ2 receptors, sequence (P23576 29-451): as the sequence (P23576 29-451) above
recombinant rat α2β3γ2 receptors, sequence (P63079 26-473 partner): as the sequence (P63079 26-473 partner) above
recombinant rat α2β3γ2 receptors, sequence (P18508 39-466): as the sequence (P18508 39-466 F115I) above, with I77F counted along it
recombinant rat α4β3γ2F77I receptors, sequence (P28471 36-552): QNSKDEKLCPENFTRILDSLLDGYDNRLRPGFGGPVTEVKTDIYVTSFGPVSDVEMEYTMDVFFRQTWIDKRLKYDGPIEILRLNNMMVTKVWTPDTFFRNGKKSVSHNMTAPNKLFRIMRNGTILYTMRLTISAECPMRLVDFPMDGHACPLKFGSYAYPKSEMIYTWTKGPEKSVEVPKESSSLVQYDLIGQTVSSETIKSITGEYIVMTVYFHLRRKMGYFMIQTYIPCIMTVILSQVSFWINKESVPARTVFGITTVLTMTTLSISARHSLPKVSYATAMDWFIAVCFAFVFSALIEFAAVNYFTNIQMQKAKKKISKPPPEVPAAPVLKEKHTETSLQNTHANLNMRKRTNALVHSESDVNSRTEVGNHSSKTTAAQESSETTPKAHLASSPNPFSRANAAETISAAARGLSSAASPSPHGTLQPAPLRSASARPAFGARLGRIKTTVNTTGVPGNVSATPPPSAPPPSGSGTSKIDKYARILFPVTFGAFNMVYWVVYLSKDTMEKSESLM
recombinant rat α4β3γ2F77I receptors, sequence (P63079 26-473 partner): as the sequence (P63079 26-473 partner) above
recombinant rat α4β3γ2F77I receptors, sequence (P18508 39-466 F115I): as the sequence (P18508 39-466 F115I) above

Cc1nnc2ccc(-c3cccc(C(F)(F)F)c3)nn12 [CL 218872, 3-methyl-6-[3-trifluoromethyl-phenyl]-1,2,4-triazolo[4,3-b]pyridazine]
efficacy (% GABA EC3) ([1]; 100 nM): ns | efficacy (% GABA EC3) ([1]; 1 μM): ns | efficacy (% GABA EC3) ([1]; 10 μM): 120 ± 3 % GABA EC3 | efficacy (% GABA EC3) ([2]; 100 nM): ns | efficacy (% GABA EC3) ([2]; 1 μM): ns | efficacy (% GABA EC3) ([2]; 10 μM): 125 ± 3 % GABA EC3 | efficacy (% GABA EC3) ([3]; 100 nM): ns | efficacy (% GABA EC3) ([3]; 1 μM): ns | efficacy (% GABA EC3) ([3]; 10 μM): ns | efficacy (% GABA EC3) ([4]; 100 nM): 114 ± 2 % GABA EC3 | efficacy (% GABA EC3) ([4]; 1 μM): 138 ± 7 % GABA EC3 | efficacy (% GABA EC3) ([4]; 10 μM): 195 ± 8 % GABA EC3 | fold reduced potency for enhancing GABA EC3 ([4]; α3β3γ2 versus α1β3γ2): approximately 3 fold | stimulation of GABA-induced chloride flux [5]: 20–40% | efficacy (% GABA EC3) ([6]; 100 nM, α6β3γ2): ns | efficacy (% GABA EC3) ([6]; 1 μM, α6β3γ2): ns | efficacy (% GABA EC3) ([6]; 10 μM, α6β3γ2): ns | efficacy (% GABA EC3) ([6]; 10 μM, α6β3γ2, listed as Cl218872): no significant stimulation | shift in affinity caused by γ2F77I [7]: ~900 fold | efficacy (% GABA EC3) ([8]; 100 nM): ns | efficacy (% GABA EC3) ([8]; 1 μM): 114 ± 1 % GABA EC3 | efficacy (% GABA EC3) ([8]; 10 μM): 128 ± 2 % GABA EC3 | efficacy (% GABA EC3) ([9]; 100 nM): ns | efficacy (% GABA EC3) ([9]; 1 μM): ns | efficacy (% GABA EC3) ([9]; 10 μM): 132 ± 4 % GABA EC3 | efficacy (% GABA EC3) ([10]; 100 nM, α4β3γ2): ns | efficacy (% GABA EC3) ([10]; 1 μM, α4β3γ2): ns | efficacy (% GABA EC3) ([10]; 1 μM, α4β3γ2, listed as Cl218872): no effect | efficacy (% GABA EC3) ([10]; 10 μM, α4β3γ2): 199 ± 27 % GABA EC3 | efficacy (% GABA EC3) ([11]; 100 nM): 119 ± 7 % GABA EC3 | efficacy (% GABA EC3) ([11]; 1 μM): 172 ± 10 % GABA EC3 | efficacy (% GABA EC3) ([11]; 10 μM): 214 ± 13 % GABA EC3 | efficacy (% GABA EC3) ([12]; 100 nM): ns | efficacy (% GABA EC3) ([12]; 1 μM): ns | efficacy (% GABA EC3) ([12]; 10 μM): 162 ± 3 % GABA EC3 | further fold reduction of potency for enhancing GABA current ([12]; α2β3γ2 versus α3β3γ2): approximately 3 fold

Cc1ccc(-c2nc3ccc(C)cn3c2CC(=O)N(C)C)cc1 [Zolpidem, N,N,6-trimethyl-2-(4-methylphenyl)imidazo[1,2-a]-pyridine-3-acetamide]
efficacy (% GABA EC3) ([1]; 100 nM): ns | efficacy (% GABA EC3) ([1]; 1 μM): ns | efficacy (% GABA EC3) ([2]; 100 nM): ns | efficacy (% GABA EC3) ([2]; 1 μM): ns | efficacy (% GABA EC3) ([2]; 10 μM): 145 ± 5 % GABA EC3 | efficacy (% GABA EC3) ([3]; 100 nM): ns | efficacy (% GABA EC3) ([3]; 1 μM): ns | efficacy (% GABA EC3) ([3]; 10 μM): 145 ± 3 % GABA EC3 | stimulation of GABA-induced chloride flux [5]: 20–40% | efficacy (% GABA EC3) ([6]; 10 μM, α6β3γ2): ns | maximal effect on GABA-induced chloride flux (GABA EC3), % of control current ([6]; α6β3γ2, control current = 100%): did not significantly enhance | shift in affinity caused by γ2F77I [7]: approximately 300 fold | efficacy (% GABA EC3) ([8]; 100 nM): ns | efficacy (% GABA EC3) ([8]; 1 μM): ns | efficacy (% GABA EC3) ([8]; 10 μM): ns | efficacy (% GABA EC3) ([8]; 10 μM, listed as zolpidem): unable to modulate | efficacy (% GABA EC3) ([9]; 100 nM): ns | efficacy (% GABA EC3) ([9]; 1 μM): ns | efficacy (% GABA EC3) ([9]; 10 μM): 142 ± 8 % GABA EC3 | efficacy (% GABA EC3) ([10]; 100 nM, α4β3γ2): ns | efficacy (% GABA EC3) ([10]; 1 μM, α4β3γ2): ns | efficacy (% GABA EC3) ([10]; 10 μM, α4β3γ2): ns | maximal effect on GABA-induced chloride flux (GABA EC3), % of control current ([10]; α4β3γ2, control current = 100%): did not significantly enhance

CC(C)(C)OC(=O)c1ncn2c1[C@@H]1CCCN1C(=O)c1c(Br)cccc1-2 [Bretazenil, t-butyl(s)-8-bromo-11,12,13,13a-tetrahydro-9-oxo-9H-imidazo[1,5-a] pyrrolo[2,1-c][1,4]benzodiazepine-1-carboxylate]
EC50 [1]: > 748 nM | efficacy (% GABA EC3) ([1]; 10 nM): ns | efficacy (% GABA EC3) ([1]; 100 nM): 124 ± 3 % GABA EC3 | efficacy (% GABA EC3) ([1]; 1 μM): 193 ± 8 % GABA EC3 | efficacy (% GABA EC3) ([1]; 10 μM): 249 ± 11 % GABA EC3 | efficacy (% GABA EC3) ([2]; 10 nM): ns | efficacy (% GABA EC3) ([2]; 100 nM): 117 ± 3 % GABA EC3 | efficacy (% GABA EC3) ([2]; 1 μM): 143 ± 7 % GABA EC3 | efficacy (% GABA EC3) ([2]; 10 μM): 238 ± 15 % GABA EC3 | efficacy (% GABA EC3) ([13]; 10 nM): ns | efficacy (% GABA EC3) ([13]; 100 nM): ns | efficacy (% GABA EC3) ([13]; 1 μM): ns | efficacy (% GABA EC3) ([13]; 10 μM): ns | efficacy (% GABA EC3) ([3]; 10 nM): ns | efficacy (% GABA EC3) ([3]; 1 μM): 125 ± 3 % GABA EC3 | efficacy (% GABA EC3) ([3]; 10 μM): 179 ± 8 % GABA EC3 | EC50 [4]: 15 ± 2 nM | efficacy (% GABA EC3) ([4]; 10 nM): 154 ± 6 % GABA EC3 | efficacy (% GABA EC3) ([4]; 100 nM): 213 ± 11 % GABA EC3 | efficacy (% GABA EC3) ([4]; 1 μM): 224 ± 14 % GABA EC3 | efficacy (% GABA EC3) ([4]; 10 μM): 234 ± 17 % GABA EC3 | efficacy (% GABA EC3) ([14]; 10 nM): ns | efficacy (% GABA EC3) ([14]; 100 nM): ns | efficacy (% GABA EC3) ([14]; 1 μM): ns | efficacy (% GABA EC3) ([14]; 10 μM): ns | activity in the mutated receptors ([5]; up to 100 nM): inactive | EC50 [6]: > 322 nM | efficacy (% GABA EC3) ([6]; 10 nM, α6β3γ2): ns | efficacy (% GABA EC3) ([6]; 100 nM, α6β3γ2): ns | efficacy (% GABA EC3) ([6]; 1 μM, α6β3γ2): 202 ± 12 % GABA EC3 | efficacy (% GABA EC3) ([6]; 10 μM, α6β3γ2): 231 ± 13 % GABA EC3 | EC50 [8]: 9 ± 2 nM | efficacy (% GABA EC3) ([8]; 10 nM): 168 ± 13 % GABA EC3 | efficacy (% GABA EC3) ([8]; 100 nM): 205 ± 17 % GABA EC3 | efficacy (% GABA EC3) ([8]; 1 μM): 216 ± 22 % GABA EC3 | efficacy (% GABA EC3) ([8]; 10 μM): 228 ± 23 % GABA EC3 | efficacy (% GABA EC3) ([9]; 10 nM): ns | efficacy (% GABA EC3) ([9]; 100 nM): 120 ± 6 % GABA EC3 | efficacy (% GABA EC3) ([9]; 1 μM): 149 ± 12 % GABA EC3 | efficacy (% GABA EC3) ([9]; 10 μM): 164 ± 21 % GABA EC3 | EC50 [10]: > 354 nM | efficacy (% GABA EC3) ([10]; 10 nM, α4β3γ2): ns | efficacy (% GABA EC3) ([10]; 100 nM, α4β3γ2): 156 ± 11 % GABA EC3 | efficacy (% GABA EC3) ([10]; 1 μM, α4β3γ2): 332 ± 23 % GABA EC3 | efficacy (% GABA EC3) ([10]; 10 μM, α4β3γ2): 395 ± 8 % GABA EC3 | EC50 [11]: 4 ± 1 nM | efficacy (% GABA EC3) ([11]; 10 nM): 126 ± 5 % GABA EC3 | efficacy (% GABA EC3) ([11]; 100 nM): 134 ± 7 % GABA EC3 | efficacy (% GABA EC3) ([11]; 1 μM): 136 ± 9 % GABA EC3 | efficacy (% GABA EC3) ([11]; 10 μM): 138 ± 10 % GABA EC3 | EC50 [12]: 7 ± 1 nM | efficacy (% GABA EC3) ([12]; 10 nM): 119 ± 4 % GABA EC3 | efficacy (% GABA EC3) ([12]; 100 nM): 128 ± 5 % GABA EC3 | efficacy (% GABA EC3) ([12]; 1 μM): 130 ± 7 % GABA EC3 | efficacy (% GABA EC3) ([12]; 10 μM): 129 ± 10 % GABA EC3
